According to US20060025419A1, “Imidazoquinoxaline compound for the treatment of melanoma” (priority 2004, published 2006):

Columns and labels:
SK-Mel-5 cells [1] = experiment: Growth of cultured melanoma cells, hemocytometer counting; assay type: cell-based, human
Protocol: FIGS. 1A-1E. […] After 72 h treatment, cells were photographed. […] 2×10^6 SK-Mel-5 melanoma cells were subcutaneously inoculated into nude mice (n=5 mice per group). […] Tumor size was measured using an electronic digital caliper at intervals of 4 days. Tumor volume was calculated and statistically analyzed. Data shown are representative of two independent experiments. […] BMS-345541 levels in serum (μM, left axis) and tumor tissues (nmoles per gram tumor protein, right axes) were determined at the indicated time points.
A super-repressor form of human IκBα (S32, 36A) resistant to degradation and mutant IKKβ (K44M) was kindly provided by Javier Piedrafita (Sidney Kimmel Cancer Center, University of California-San Diego School of Medicine). Antibodies to IKKα (H-744), IKKβ (H-470), Bcl-2, Bax and AIF were purchased from Santa Cruz Biotechnology, Inc. (Santa Cruz, Calif.). Dihydroethidine, 3,3′dihexyloxacarbocyanine iodide and pan-caspase inhibitor (Z-VAD-FMK) were purchased from Molecular Probes (Eugene, Oreg.). N-acetyl-L-cysteine (NAC) and Tiron were from Sigma-Aldrich (St. Louis, Mo.). Normal human epidermal melanocytes (NHEM) were provided by the Skin Disease Research Center in Vanderbilt University School of Medicine. NHEM were cultured in 154 medium with 1× human melanocyte growth supplement (Cascade Biologicals, Inc.). The melanoma cell lines, Sk Mel5, A375 and Hs294T, originally established from human metastatic melanoma, were purchased from American Type Culture Collection and cultured in DMEM: Ham's F-12 medium containing 10% FBS, 2 mM of L-glutamine, 100 μM of MEM Non-Essential Amino Acids (Life Technologies, Inc.), and 1 mM of sodium pyruvate (Sigma Chemical Co.).
Aberrant activation of NF-κB has been associated with carcinogenesis, and constitutively high IKK activity has been detected in many tumor types, including human melanoma (Yang & Richmond, 2001; Liptay et al., 2003; Mathas et al., 2003). IKK is a major regulator of the NF-κB pathway and therefore represents an attractive therapeutic target in advanced cancers. […] After three days of culture, the cell numbers were determined by hemocytometer counting (Table 1).

IKK [2] = molecular target: T1, IKK (Homo sapiens, UniProt O14920+O15111); experiment: IKK immunoprecipitation and in vitro kinase assay from treated SK-Mel-5 cells; assay type: cell-based; conditions: overnight (14 h) treatment, autoradiography (FIG. 2B)
T1 construct: Equal aliquots of cytoplasmic IKK proteins were immunoprecipitated with anti-IKKα/β antibodies; endogenous in cells; host or cells: SK-Mel-5 human melanoma cells, cytoplasmic extract, immunoprecipitated on Protein A/G agarose beads
T1 sequence (O14920 whole entry): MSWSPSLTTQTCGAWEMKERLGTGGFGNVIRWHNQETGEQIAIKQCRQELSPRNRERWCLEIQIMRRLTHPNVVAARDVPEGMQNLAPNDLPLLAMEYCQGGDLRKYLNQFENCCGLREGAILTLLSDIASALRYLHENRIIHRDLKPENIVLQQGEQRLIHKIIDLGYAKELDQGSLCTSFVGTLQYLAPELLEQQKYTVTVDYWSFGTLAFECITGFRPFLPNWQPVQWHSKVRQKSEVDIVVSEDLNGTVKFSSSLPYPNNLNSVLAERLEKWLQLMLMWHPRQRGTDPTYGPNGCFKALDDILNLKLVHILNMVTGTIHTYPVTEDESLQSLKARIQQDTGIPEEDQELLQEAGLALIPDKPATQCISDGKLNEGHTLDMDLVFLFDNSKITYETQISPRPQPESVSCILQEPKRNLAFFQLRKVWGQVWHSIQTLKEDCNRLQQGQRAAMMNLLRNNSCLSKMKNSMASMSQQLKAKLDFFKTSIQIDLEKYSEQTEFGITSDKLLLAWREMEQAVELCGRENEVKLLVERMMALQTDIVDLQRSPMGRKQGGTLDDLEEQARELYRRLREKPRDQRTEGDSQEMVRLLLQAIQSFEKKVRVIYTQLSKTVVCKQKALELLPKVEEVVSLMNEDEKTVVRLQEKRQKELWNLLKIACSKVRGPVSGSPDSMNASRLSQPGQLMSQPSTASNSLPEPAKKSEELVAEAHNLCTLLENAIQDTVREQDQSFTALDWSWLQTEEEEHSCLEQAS
T1 sequence (O15111 whole entry): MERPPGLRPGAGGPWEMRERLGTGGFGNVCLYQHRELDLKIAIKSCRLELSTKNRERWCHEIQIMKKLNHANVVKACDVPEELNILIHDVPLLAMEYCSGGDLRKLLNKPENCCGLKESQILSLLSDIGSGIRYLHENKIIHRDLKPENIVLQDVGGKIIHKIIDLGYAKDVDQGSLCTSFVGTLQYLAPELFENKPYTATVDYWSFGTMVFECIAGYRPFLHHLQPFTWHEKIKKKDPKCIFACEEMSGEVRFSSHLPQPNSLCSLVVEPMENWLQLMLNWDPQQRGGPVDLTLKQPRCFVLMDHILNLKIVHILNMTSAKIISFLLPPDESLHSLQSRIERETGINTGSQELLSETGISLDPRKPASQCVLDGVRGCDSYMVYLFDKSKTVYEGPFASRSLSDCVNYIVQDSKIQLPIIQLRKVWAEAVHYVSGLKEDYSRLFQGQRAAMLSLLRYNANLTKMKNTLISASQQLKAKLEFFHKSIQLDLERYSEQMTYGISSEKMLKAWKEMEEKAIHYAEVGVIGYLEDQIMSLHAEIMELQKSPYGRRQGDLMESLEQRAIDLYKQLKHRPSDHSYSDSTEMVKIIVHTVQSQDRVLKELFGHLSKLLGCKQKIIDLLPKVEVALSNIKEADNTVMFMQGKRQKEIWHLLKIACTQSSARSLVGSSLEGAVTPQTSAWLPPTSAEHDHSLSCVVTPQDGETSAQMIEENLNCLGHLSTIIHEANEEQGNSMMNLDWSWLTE
T1 sequence (Q9Y6K9 whole entry partner): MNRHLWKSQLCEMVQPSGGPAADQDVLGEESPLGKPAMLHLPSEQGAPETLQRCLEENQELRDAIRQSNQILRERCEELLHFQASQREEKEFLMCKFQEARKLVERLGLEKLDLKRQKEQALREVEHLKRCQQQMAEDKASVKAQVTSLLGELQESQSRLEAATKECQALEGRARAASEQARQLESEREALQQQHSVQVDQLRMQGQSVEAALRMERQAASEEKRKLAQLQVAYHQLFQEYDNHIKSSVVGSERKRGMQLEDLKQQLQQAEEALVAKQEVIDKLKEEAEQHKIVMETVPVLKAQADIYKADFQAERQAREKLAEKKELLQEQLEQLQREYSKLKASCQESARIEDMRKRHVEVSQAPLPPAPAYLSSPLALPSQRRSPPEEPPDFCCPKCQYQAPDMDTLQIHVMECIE
Protocol: (§1) FIGS. 2A-2D. […] SK-Mel-5 cells were plated in 6-well plates (1.5×10^5 cells per well) and then cotransfected with 1 μg of HIV long terminal repeat NF-κB-luciferase vector and β-galactosidase vector DNA using Lipofectamine Plus reagent. Twenty-four hours after transfection, cells in duplicate plates were treated with 0, 0.1, 1 and 10 μM of BMS-345541in DMSO and incubated for an additional 36 h. Cell extract was prepared and luciferase activity was detected. Luciferase activity was normalized to β-galactosidase activity. […] ATP. The [γ-^32P]-labeled IκBα protein was visualized by autoradiography. […] The supernatants from B were cleared by centrifugation, or (FIG. 2D) sera were collected from mice, and subjected to ELISA assay for CXCL1 according to the manufacture's protocol. Data shown are from a representative data set from two experiments performed in duplicate (total n=4 for each point). For ELISA; the mean value is representative of serum samples from five mice.

IKK [3] = molecular target: T1, IKK; experiment: Cell-free IKK kinase assay with washing (reversibility); assay type: biochemical; conditions: immunopurified IKK, 10 μM, 20 min, washed three times
Protocol: To analyze the IKK activity, cytoplasmic extracts were prepared from cells cultured for 24 h in serum-free medium. Cells were mechanically released from tissue culture plates by scraping in cold PBS according to standard protocols. Cells were collected by centrifugation (800×g), and then resuspended in lysis buffer [10 mM HEPES (pH 7.9), 10 mM KCl, 0.1 mM EDTA, 0.1 mM EGTA, 0.1% NP40, 1 mM DTT, and 0.5 mM phenylmethylsulfonyl fluoride] with Complete Protein Inhibitors (Roche). 400 μg aliquots of cytoplasmic extracts were incubated with 1 μg each of IKKα and IKKβ polyclonal antibodies (Santa Cruz Biotechnology) and 60 μg aliquots of Protein A/G agarose-conjugated beads for 4 h at 4° C. […] The reaction mixtures were resolved by SDS-PAGE, transferred to nitrocellulose membrane, and phosphorylated IκB was detected by autoradiography.
Equal aliquots of cytoplasmic IKK proteins were immunoprecipitated with anti-IKKα/β antibodies and IKK activity was determined in an in vitro kinase assay using recombinant IκBα protein as a substrate for IκB kinase. The IKK activity was determined by autoradiography.

CXCL1 [4] = experiment: CXCL1 ELISA of melanoma cell culture medium; assay type: cell-based, human; conditions: SK-Mel-5 supernatant, 14 h
Protocol: as §1
(§2) To quantify the CXCL1 expression levels in vivo and in vitro, serum was collected at the end of the experiments from mice bearing SK-Mel-5 melanoma tumors or from the cleared supernatants of melanoma cell culture medium. Briefly, 1.5×10^5 of SK-Mel-5 cells/well were seeded in six-well plates in duplicate in DMEM/F12 medium containing 10% FBS.

CXCL1 [5] = experiment: CXCL1 ELISA of serum of mice bearing melanoma tumors; assay type: in vivo
Protocol: as §1, §2

NF-κB/p65 = experiment: Time-lapse microscopy of GFP-p65 translocation; assay type: cell-based, human; conditions: SK-Mel-5, 10 μM, 7 h observation
Protocol: SK-Mel-5 cells (2×10^5 ) were cultured in 25 cm^2 culture flasks (Corning Inc., Corning, N.Y.) and transfected with 0.5 μg of GFP-p65 expression vector DNA for 14 h. […] The expression and localization of EGFP-p65 in live cells was recorded using time-lapse video microscopy (FIGS. 3A). The cytosolic and nuclear green fluorescent density was quantified by the Openlab software program (FIGS. 3B).
To test this possibility, SK-Mel-5 cells were transfected with a GFP-p65 expression vector to monitor the nuclear translocation in living cells. […] Time-lapse video microscopy was used to follow the localization of GFP-p65 in live cells. Images were captured at one-hour intervals over a 7 h observation period. The cytosol versus nuclear green fluorescent density was quantified by the Openlab software program.

SK-Mel-5 cells [6] = experiment: TUNEL assay of cultured cells by flow cytometry; assay type: cell-based, human; conditions: 36 h
Protocol: (§3) FIGS. 4A-4H. […] Paraffin-embedded tumor tissues were subjected to H&E staining (FIGS. 4C & D) and DeadEnd Fluorometric TUNEL-assay for detection of apoptosis (FIGS. 4E & F). The TUNEL-positive cells are visualized in green fluorescence in a red (Propidium Iodide) background by fluorescence microscopy. […] After 36 h incubation, cells were collected and fixed with 1% formaldehyde and 70% ice-cold ethanol. The apoptotic cells were examined using TUNEL-assay and analyzed by flow cytometry through measuring fluorescein-12-dUTP at 520 nm. The apoptotic rate is indicated in each box. Data shown are represented one of three independent experiments. […] Cells were fixed and stained with Propidium iodide. Cell fluorescence was measured by flow cytometry and the data were analyzed using DNA content histogram deconvolution software (Multicycle from Phoenix Flow Systems). The percentage of apoptotic cells with fragmented DNA (PI intensity sub-G0/G1) is indicated at each time point. The experiments were repeated twice, in duplicates for each point (total n=4).
(§4) In melanoma, constitutive activation of NF-κB confers tumor survival capacity and escape from apoptosis (Richmond, 2002). […] Apoptotic cells were labeled using DeadEnd Fluorometric TUNEL reagent and analyzed by flow cytometry. […] Thirty-six hours after transfection, cells were collected, labeled with TUNEL reagent and analyzed by flow cytometry. […] Induction of DNA fragmentation, a hallmark of apoptosis, was evaluated by staining DNA with ethidium bromide followed by quantization by FACS analysis.

melanoma tumor = experiment: H&E and TUNEL staining of melanoma tumor sections; assay type: in vivo, mice
Protocol: as §3, with “The percentage of apoptotic cells with fragmented DNA (PI intensity sub-G0/G1) is indicated at each time point. The experiments were repeated twice, in duplicates for each point (total n=4).” left out
as §4

Cc1ccc2nc(NCCN)c3ncc(C)n3c2c1.Cl [BMS-345541, 4(2′-aminoethyl)amino-1,8-dimethylimidazo(1,2-a)quinoxaline]
cell morphology (SK-Mel-5 cells [1]; 10 μM or 100 μM, 14 h (FIG. 1A)): appeared morphologically apoptotic | cell number after three days of culture (SK-Mel-5 cells [1]; Sk-Mel-5, 0.1 μM): 3.7 ± 0.55 10^5 | cell number after three days of culture (SK-Mel-5 cells [1]; Sk-Mel-5, 1.0 μM): 2.7 ± 0.31 10^5 | cell number after three days of culture (SK-Mel-5 cells [1]; Sk-Mel-5, 10 μM): 0.028 ± 0.02 10^5 | cell number after three days of culture (SK-Mel-5 cells [1]; Sk-Mel-5, 100 μM): 0 10^5 | IKK activity in SK-Mel-5 melanoma cells (IKK [2]): reduced by BMS-345541 in a concentration-dependent fashion | reversibility of IKK inhibition by washing (IKK [3]): reversed after the washing steps | CXCL1 expression in melanoma cell cultures (CXCL1 [4]): suppressed in a concentration-dependent manner | CXCL1 expression in mouse sera (CXCL1 [5]): suppressed in a concentration-dependent manner | GFP-p65 localization (NF-κB/p65): consistently retained GFP-p65 in the cytoplasm | increase in apoptotic cells vs vehicle (TUNEL) (SK-Mel-5 cells [6]; SK-Mel-5, 1.0 μM): 2 fold | increase in apoptotic cells vs vehicle (TUNEL) (SK-Mel-5 cells [6]; SK-Mel-5, 10 μM): 3.3 fold | increase in apoptotic cells vs vehicle (TUNEL) (SK-Mel-5 cells [6]; SK-Mel-5, 100 μM): 4 fold | nuclear apoptosis in tumor sections (H&E, TUNEL) (melanoma tumor; 25 mg/kg daily): obvious nuclear condensation and DNA fragment staining | TUNEL staining of tumor sections (melanoma tumor; 75 mg/kg): TUNEL staining appeared extensively over the tumor sections
